Results taken from patent publication US10294202B2, “Pyrrolidinones as herbicides” (FMC Corporation, priority 2013, dated 2019).

Tests used:
corn [1] = test: Test C pre-/postemergence herbicide test; format: in vivo, Zea mays
Procedure, shortened: (§1)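 Test compounds, formulated in a surfactant-containing non-phytotoxic solvent blend, are applied to seeded loam/sand soil (preemergence) and to young plants at the 1- to 4-leaf stage in peat-based medium (postemergence). Plants stay 13 to 15 days under greenhouse conditions, then are scored visually relative to controls, 0 = no effect, 100 = complete control.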

corn [2] = test: Test A pre-/postemergence herbicide test; format: in vivo, Zea mays; details: Postemergence
Procedure, shortened: (§2)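 Planted in loam–sand blend; treated the same day preemergence by directed soil spray, while separately grown plants at one- to two-leaf stage got postemergence spray. Compared visually with untreated controls after approximately 10 days; 100 means complete control.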

blackgrass = test: Test C pre-/postemergence herbicide test; format: in vivo, Alopecurus myosuroides
Procedure, shortened: as §1

lambsquarters = test: Test C pre-/postemergence herbicide test; format: in vivo, Chenopodium album
Procedure, shortened: as §1

morningglory = test: Test C pre-/postemergence herbicide test; format: in vivo, Ipomoea coccinea
Procedure, shortened: as §1

oilseed rape = test: Test C pre-/postemergence herbicide test; format: in vivo, Brassica napus
Procedure, shortened: as §1

soybean = test: Test C pre-/postemergence herbicide test; format: in vivo, Glycine max
Procedure, shortened: as §1

nutsedge, yellow = test: Test C pre-/postemergence herbicide test; format: in vivo, Cyperus esculentus
Procedure, shortened: as §1

ducksalad = test: Test B flooded paddy test; format: in vivo, Heteranthera limosa; details: 500 g ai/ha, Flood; scale of 0 to 100 where 0 is no effect and 100 is complete control
Procedure, shortened: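 Plants grown to 2-leaf stage; pots flooded 3 cm above soil and compound applied directly into paddy water, depth held throughout. Visual rating against untreated controls after 13 to 15 days in greenhouse, 0 (no effect) to 100 (complete control).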

pigweed = test: Test A pre-/postemergence herbicide test; format: in vivo, Amaranthus retroflexus
Procedure, shortened: as §2

barnyardgrass = test: Test A pre-/postemergence herbicide test; format: in vivo, Echinochloa crus-galli
Procedure, shortened: as §2

[3] = Postemergence, 31 g ai/ha, scale 0 to 100 (0 no effect, 100 complete control)
[4] = Postemergence, 62 g ai/ha, scale 0 (no effect) to 100 (complete control)
[5] = Postemergence, 125 g ai/ha, scale 0 to 100 (0 no effect, 100 complete control)
[6] = Postemergence, 250 g ai/ha, scale 0 to 100 (0 no effect, 100 complete control)
[7] = Preemergence, 31 g ai/ha, scale 0 to 100, 0 is no effect and 100 is complete control
[8] = Preemergence, 62 g ai/ha, scale 0 to 100 (0 no effect, 100 complete control)
[9] = Preemergence, 125 g ai/ha, scale 0 to 100 (0 no effect, 100 complete control)
[10] = Postemergence, 500 g ai/ha, 0 to 100 scale (0 no effect, 100 complete control)
[11] = Preemergence, 125 g ai/ha, 0 to 100 scale where 0 is no effect and 100 is complete control
[12] = preemergence, 500 g ai/ha, 0 to 100 scale, 0 is no effect and 100 is complete control

SMILES: O=C1NCC(c2cc(F)cc(F)c2)C1C(=O)Nc1ccc(F)cc1F (racemic) [Compound 278]
- Plant response rating, Corn (corn [1]; [3]): 0
- Plant response rating, Corn (corn [1]; [4]): 0
- Plant response rating, Corn (corn [1]; [5]): 0
- Plant response rating, Corn (corn [1]; [6]): 0
- Corn plant response rating (corn [1]; [7]): 0
- Corn plant response rating (corn [1]; [8]): 0
- Plant response rating, Corn (corn [1]; [9]): 0
- Plant response rating (scale of 0 to 100), Corn (corn [1]; Preemergence, 250 g ai/ha): 5
- Plant response rating, Corn (corn [2]; 125 g ai/ha, 0 to 100 scale, 0 is no effect, 100 is complete control): 0
- Plant response rating, Corn (corn [2]; 500 g ai/ha, 0 to 100 scale (0 no effect, 100 complete control)): 0
- Plant response rating, Blackgrass (blackgrass; [3]): 0
- Plant response rating, Blackgrass (blackgrass; [4]): 0
- Plant response rating, Blackgrass (blackgrass; [5]): 0
- Plant response rating, Blackgrass (blackgrass; [6]): 0
- Blackgrass plant response rating (blackgrass; [7]): 0
- Blackgrass plant response rating (blackgrass; [8]): 0
- Plant response rating, Blackgrass (blackgrass; [9]): 0
- Plant response rating (scale of 0 to 100), Blackgrass (blackgrass; Preemergence, 250 g ai/ha): 0
- Plant response rating, Lambsquarters (lambsquarters; [3]): 0
- Plant response rating, Lambsquarters (lambsquarters; [4]): 0
- Plant response rating, Lambsquarters (lambsquarters; [5]): 20
- Plant response rating, Lambsquarters (lambsquarters; [6]): 20
- Lambsquarters plant response rating (lambsquarters; [7]): 0
- Lambsquarters plant response rating (lambsquarters; [8]): 0
- Plant response rating, Lambsquarters (lambsquarters; [9]): 0
- Plant response rating (scale of 0 to 100), Lambsquarters (lambsquarters; Preemergence, 250 g ai/ha): 0
- Plant response rating, Morningglory (morningglory; [3]): 0
- Plant response rating, Morningglory (morningglory; [4]): 0
- Plant response rating, Morningglory (morningglory; [5]): 45
- Plant response rating, Morningglory (morningglory; [6]): 0
- Morningglory plant response rating (morningglory; [7]): 0
- Morningglory plant response rating (morningglory; [8]): 0
- Plant response rating, Morningglory (morningglory; [9]): 0
- Plant response rating (scale of 0 to 100), Morningglory (morningglory; Preemergence, 250 g ai/ha): 0
- Plant response rating, Oilseed Rape (oilseed rape; [3]): 0
- Plant response rating, Oilseed Rape (oilseed rape; [4]): 0
- Plant response rating, Oilseed Rape (oilseed rape; [5]): 5
- Plant response rating, Oilseed Rape (oilseed rape; [6]): 0
- Oilseed Rape plant response rating (oilseed rape; [7]): 0
- Oilseed Rape plant response rating (oilseed rape; [8]): 0
- Plant response rating, Oilseed Rape (oilseed rape; [9]): 0
- Plant response rating (scale of 0 to 100), Oilseed Rape (oilseed rape; Preemergence, 250 g ai/ha): 5
- Plant response rating, Soybean (soybean; [3]): 50
- Plant response rating, Soybean (soybean; [4]): 55
- Plant response rating, Soybean (soybean; [5]): 40
- Plant response rating, Soybean (soybean; [6]): 15
- Soybean plant response rating (soybean; [7]): 0
- Soybean plant response rating (soybean; [8]): 0
- Plant response rating, Soybean (soybean; [9]): 10
- Plant response rating (scale of 0 to 100), Soybean (soybean; Preemergence, 250 g ai/ha): 10
- Plant response rating, Nutsedge, Yellow (nutsedge, yellow; [3]): 0
- Plant response rating, Nutsedge, Yellow (nutsedge, yellow; [4]): 0
- Plant response rating, Nutsedge, Yellow (nutsedge, yellow; [5]): 0
- Plant response rating, Nutsedge, Yellow (nutsedge, yellow; [6]): 15
- Nutsedge, Yellow plant response rating (nutsedge, yellow; [7]): 0
- Nutsedge, Yellow plant response rating (nutsedge, yellow; [8]): 0
- Plant response rating, Nutsedge, Yellow (nutsedge, yellow; [9]): 5
- Plant response rating (scale of 0 to 100), Nutsedge, Yellow (nutsedge, yellow; Preemergence, 250 g ai/ha): 5
- Plant response rating, Ducksalad (ducksalad): 100
- Plant response rating, Pigweed (pigweed; Postemergence, 125 g ai/ha, visual rating on 0 to 100 scale (0 no effect, 100 complete control), approx. 10 days): 0
- Plant response rating, Pigweed (pigweed; [10]): 10
- Plant response rating, Pigweed (pigweed; [11]): 0
- Plant response rating, Pigweed (pigweed; [12]): 0
- Plant response rating, Barnyardgrass (barnyardgrass; Postemergence, 125 g ai/ha, 0 to 100 scale, 0 is no effect, 100 is complete control): 80
- Plant response rating, Barnyardgrass (barnyardgrass; [10]): 90
- Plant response rating, Barnyardgrass (barnyardgrass; [11]): 80
- Plant response rating, Barnyardgrass (barnyardgrass; [12]): 90
